Measurements: ChEMBL document CHEMBL1148090, “Antibacterial and antifungal sulfated alkane and alkenes from the hepatopancreas of the ascidian Halocynthia roretzi” (1994)

Tests used:
Umbelopsis ramanniana = assay: Antimicrobial activity against Mortierella ramanniana at 0.2 ug/disk after 24 hrs by paper disk method; assay type: functional; conditions: read-out: IZ
Vibrio alginolyticus = assay: Antimicrobial activity against Vibrio alginolyticus ATCC 17749 at 0.2 ug/disk after 24 hrs by paper disk method; assay type: functional; conditions: ATCC 17749, 24 h, read-out: IZ

## CC/C=C/C/C=C\CCCOS(=O)(=O)O
Umbelopsis ramanniana
  zone of inhibition at 0.2 µg/disc: 10 mm
Vibrio alginolyticus
  zone of inhibition at 0.2 µg/disc: 12 mm

## CC(C)CCCC(C)COS(=O)(=O)O (stereo not drawn)
Umbelopsis ramanniana
  zone of inhibition at 0.2 µg/disc: 10 mm
Vibrio alginolyticus
  zone of inhibition at 0.2 µg/disc: 12 mm

## CC/C=C\C/C=C\CCCOS(=O)(=O)O
Umbelopsis ramanniana
  zone of inhibition at 0.2 µg/disc: 10 mm
Vibrio alginolyticus
  zone of inhibition at 0.2 µg/disc: 12 mm

## C=CC/C=C\C/C=C\CCOS(=O)(=O)O
Umbelopsis ramanniana
  zone of inhibition at 0.2 µg/disc: 10 mm
Vibrio alginolyticus
  zone of inhibition at 0.2 µg/disc: 12 mm
